Results: US5686482A, “N-(3-pyrrolidinyl) benzamide derivative” (priority 1994, dated 1997)
Like-named read-outs stand apart in the source and are kept apart here.

What was measured:
[1] = tested on: apomorphine-induced climbing behavior; test: antagonism test on apomorphine-induced climbing behavior; assay type: in vivo; details: Mus musculus; SC administration, 15 minutes before apomorphine 2 mg/kg SC; ICR mice; measured during 30 minutes
Description: 2) Antagonism test on apomorphine-induced climbing behavior
Each test compound was administered to ICR mice (body weight, around 35 g; Japan SLC) by subcutaneous injection and, after 15 minutes, apomorphine (2 mg/kg) was subcutaneously injected.

D4 receptor = molecular target: T1, D4 receptor (Homo sapiens, UniProt P21917); test: receptor binding test, D4 receptor; details: for Ki: cloned receptor membrane, [125I]iodosulpride or [3H]YM-09151-2, 25° C., 1 hour; for Ratio D2/D4: ratio of Ki values
T1 sequence (P21917 1-419): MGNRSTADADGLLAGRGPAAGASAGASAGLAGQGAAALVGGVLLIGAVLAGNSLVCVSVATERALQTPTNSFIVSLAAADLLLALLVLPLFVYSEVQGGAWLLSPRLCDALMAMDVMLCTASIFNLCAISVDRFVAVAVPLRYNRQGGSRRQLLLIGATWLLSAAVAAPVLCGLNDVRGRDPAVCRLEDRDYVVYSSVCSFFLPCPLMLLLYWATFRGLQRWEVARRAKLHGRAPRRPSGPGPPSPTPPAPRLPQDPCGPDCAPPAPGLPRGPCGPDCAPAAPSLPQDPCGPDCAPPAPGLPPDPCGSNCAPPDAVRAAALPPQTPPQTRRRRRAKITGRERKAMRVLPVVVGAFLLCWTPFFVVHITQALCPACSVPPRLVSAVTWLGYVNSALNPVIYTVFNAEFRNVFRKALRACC

D3 receptor = molecular target: T2, D3 receptor (Rattus norvegicus, UniProt P19020); test: receptor binding test, D3 receptor; details: for Ki: cloned receptor membrane, [125I]iodosulpride or [3H]YM-09151-2, 25° C., 1 hour; for Ratio D2/D3: ratio of Ki values
T2 construct: expressed in transfected cells
T2 sequence (P19020 whole entry): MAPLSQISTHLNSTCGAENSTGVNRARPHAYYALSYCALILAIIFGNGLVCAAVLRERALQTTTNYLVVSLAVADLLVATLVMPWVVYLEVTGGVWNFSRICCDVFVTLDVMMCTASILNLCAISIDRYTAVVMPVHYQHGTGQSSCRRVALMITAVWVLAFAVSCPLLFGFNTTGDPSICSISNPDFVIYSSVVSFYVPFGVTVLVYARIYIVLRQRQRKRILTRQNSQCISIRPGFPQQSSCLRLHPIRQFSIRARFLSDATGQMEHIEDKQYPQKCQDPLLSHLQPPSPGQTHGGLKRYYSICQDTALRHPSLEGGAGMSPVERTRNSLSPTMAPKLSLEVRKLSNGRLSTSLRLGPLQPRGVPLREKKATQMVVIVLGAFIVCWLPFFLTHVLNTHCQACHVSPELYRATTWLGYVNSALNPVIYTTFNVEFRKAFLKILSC
Description: Using membrane samples of these cells, affinity of compounds for D2 receptor, D3 receptor and D4 receptor was examined by a receptor binding test. The receptor binding test was carried out in the following manner. A D2 receptor, D3 receptor or D4 receptor membrane sample and [^125 I] iodosulpride or [^3 H] YM-09151-2 (trade name, manufactured by Daiichi Pure Chemicals) were incubated at 25° C. for 1 hour in the presence of each compound to be tested. The reaction solution was filtered through a glass filter to measure the amount of radioisotope on the filter.

D2 receptor = molecular target: T3, D2 receptor (Rattus norvegicus, UniProt P61169); test: receptor binding test, D2 receptor; details: cloned receptor membrane, [125I]iodosulpride or [3H]YM-09151-2, 25° C., 1 hour
T3 construct: expressed in transfected cells
T3 sequence (P61169 whole entry): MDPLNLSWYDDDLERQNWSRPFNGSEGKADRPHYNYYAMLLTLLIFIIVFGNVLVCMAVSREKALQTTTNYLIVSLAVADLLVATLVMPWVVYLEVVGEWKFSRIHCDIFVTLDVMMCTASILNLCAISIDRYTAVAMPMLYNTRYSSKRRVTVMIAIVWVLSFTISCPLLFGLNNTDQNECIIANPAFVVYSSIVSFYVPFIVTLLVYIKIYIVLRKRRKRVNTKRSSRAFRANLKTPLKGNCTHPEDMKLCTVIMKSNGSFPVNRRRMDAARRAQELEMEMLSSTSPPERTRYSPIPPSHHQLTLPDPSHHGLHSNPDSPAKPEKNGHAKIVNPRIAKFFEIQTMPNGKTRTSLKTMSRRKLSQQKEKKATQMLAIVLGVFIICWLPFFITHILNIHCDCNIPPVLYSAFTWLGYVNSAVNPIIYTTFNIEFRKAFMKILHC

schizophrenia patients = details: cited from earlier work
[2] = tested on: D2, D3 and D4 subtype receptors; details: existing antipsychotic agents; cited from earlier work

Row | Compound | ED50 [1] | Ki (D4 receptor) | Ratio D2/D4 (D4 receptor) | Ki (D3 receptor) | Ratio D2/D3 (D3 receptor) | Ki (D2 receptor) | side effects such as extrapyramidal symptoms (schizophrenia patients; clinical) | relative affinity for D2, D3 and/or D4 receptor [2] | effect on negative symptoms (schizophrenia patients; clinical) | side effects such as extrapyramidal symptoms (schizophrenia patients; human, in vivo)
1 | CNc1cc(C(=O)N[C@H]2CCN(C3C4CCCC3CCC4)C2)c(OC)cc1OC (stereo partly drawn) [Example 30, (S)-N-[1-(bicyclo[3.3.1]non-9-yl)-3-pyrrolidinyl]-2,4-dimethoxy-5-methylaminobenzamide hemifumarate] | 1.8 mg/kg | 1.8 nM | 19 | 3.5 nM | 9.7 | 34 nM | – | – | – | –
2 | O=C(CCCN1CCC(O)(c2ccc(Cl)cc2)CC1)c1ccc(F)cc1 [haloperidol] | – | – | – | – | – | – | highly frequent onset of side effects | high affinity for D2 receptor in comparison with D3 receptor and/or D4 receptor | – | –
3 | CCN1CCCC1CNC(=O)c1cc(S(N)(=O)=O)ccc1OC (stereo not drawn) [sulpiride] | – | – | – | – | – | – | – | its affinity for D3 and/or D4 receptor is similar to its affinity for D2 receptor | certain degree of effects on negative symptoms | relatively small side effects
4 | CN1CCN(C2=Nc3cc(Cl)ccc3Nc3ccccc32)CC1 [Clozapine] | 6.8 mg/kg | – | – | – | – | – | small extrapyramidal symptoms | – | effective for patients mainly having negative symptoms | –
5 | COc1cc(OC)c(C(=O)N[C@H]2CCN(C3C4CCCC3CCC4)C2)cc1C#N (stereo partly drawn) [Example 19, (S)-N-[1-(bicyclo[3.3.1]non-9-yl)-3-pyrrolidinyl]-5-cyano-2,4-dimethoxybenzamide] | – | 2.6 nM | 135 | 4 nM | 88 | 350 nM | – | – | – | –
6 | COc1cc(OC)c([N+](=O)[O-])cc1C(=O)N[C@H]1CCN(C2C3CCCC2CCC3)C1 (stereo partly drawn) [Example 7, (S)-N-[1-(bicyclo[3.3.1]non-9-yl)-3-pyrrolidinyl]-2,4-dimethoxy-5-nitrobenzamide] | – | 1.1 nM | 65 | 1.5 nM | 48 | 72 nM | – | – | – | –
